Data published in BindingDB's records for doi:10.1021/jm500759v (Griffith University, 2014).

Test: Inhibition of neuraminidase activity of human parainfluenza virus 1 C35 hemagglutinin-neuraminidase pre-incubated for 20 mins before MUN substrate by methylumbelliferone release based fluorescence assay

Row | Structure (SMILES) | IC50
1 | [N-]=[N+]=N[C@H]1C=C(C(=O)O)O[C@@H]([C@H](O)[C@H](O)CO)[C@@H]1NC(=O)C1CC1 | 0.91 µM
2 | C/C=C(\C)C(=O)N[C@H]1[C@H]([C@H](O)[C@H](O)CO)OC(C(=O)O)=C[C@@H]1N=[N+]=[N-] | 7.76 µM
3 | CC(CO)C(=O)N[C@H]1[C@H]([C@H](O)[C@H](O)CO)OC(C(=O)O)=C[C@@H]1N=[N+]=[N-] (stereo partly drawn) | 9.49 µM
4 | CCC(C)C(=O)N[C@H]1[C@H]([C@H](O)[C@H](O)CO)OC(C(=O)O)=C[C@@H]1N=[N+]=[N-] (stereo partly drawn) | 1.58 µM
5 | [N-]=[N+]=N[C@H]1C=C(C(=O)O)O[C@@H]([C@H](O)[C@H](O)CO)[C@@H]1NC(=O)C1CCC1 | 1.92 µM
6 | CC(=O)N[C@H]1[C@H]([C@H](O)[C@H](O)CO)OC(C(=O)O)=C[C@@H]1N | > 1000 µM
7 | CC(O)C(=O)N[C@H]1[C@H]([C@H](O)[C@H](O)CO)OC(C(=O)O)=C[C@@H]1N=[N+]=[N-] (stereo partly drawn) | 68.1 µM
8 | CC(=O)N[C@H]1[C@H]([C@H](O)[C@H](O)CO)OC(C(=O)O)=C[C@@H]1O | 63.8 µM
9 | CC(C)C(=O)N[C@H]1[C@H]([C@H](O)[C@H](O)CO)OC(C(=O)O)=C[C@@H]1N=[N+]=[N-] | 0.5 µM
10 | CC(C)C(=O)N[C@H]1[C@H]([C@H](O)[C@H](O)CO)OC(C(=O)O)=C[C@@H]1NC(=N)N | > 1000 µM
11 | CC(C)C(=O)N[C@H]1[C@H]([C@H](O)[C@H](O)CO)OC(C(=O)O)=C[C@@H]1N | 261 µM
12 | CC(C)C(=O)N[C@H]1[C@H]([C@H](O)[C@H](O)CO)OC(C(=O)O)=C[C@@H]1O | 3.82 µM
13 | CC(=O)N[C@H]1[C@H]([C@H](O)[C@H](O)CO)OC(C(=O)O)=C[C@@H]1N=[N+]=[N-] | 3.92 µM
